# Data: patent US9079859B2, “Synthetic lethal targeting of glucose transport” (AUCKLAND UNISERVICES LIMITED, priority 2011, dated 2015)
# Where two headings read alike, the source gives them in different places.
# How the values were obtained:
# [1] = test system: RCC4 and RCC4/VHL cells; format: cell-based
# Description: Cell Viability Assays. For 2,3-bis[2-methoxy-4-nitro-5-sulfophenyl]-2H-tetrazolium-5-carboxanilide (XTT) assays, five thousand cells were plated in 96-well plates. The next day, vehicle (DMSO) or drug was added by serial dilution. Four days later, media were aspirated, XTT solution (0.3 mg/ml of XTT (Sigma), […] N-methyl dibenxopyrazine methyl sulfate (Sigma) in phenol red-free media) was added, and the plates were incubated at 37° C. for 1-2 hours. Metabolism of XTT was quantified by measuring the absorbance at 450 nm. IC50s were calculated using linear interpolation. For clonogenic survival assays, three hundred cells were plated per 60 mm tissue culture dish. The cells were allowed to attach overnight and then treated with vehicle or drug for 14 days. Colonies were fixed and stained with crystal violet (0.1% crystal violet in 95% ethanol). All conditions were measured in triplicate and each experiment was done in duplicate or triplicate. To determine necrosis, cells were treated with drug for a given time point. Media and cells were collected, centrifugated, and resuspended in 0.4% trypan blue (Invitrogen). Live and dead cells were counted on a hematocytometer.
# [2] = test system: 786-O xenograft tumors; assay: FDG-PET imaging of glucose uptake in renal carcinoma xenograft; format: in vivo, mice; conditions: three daily doses (STF-35 11.6 mg/kg i.p.)
# Description: In Vivo Studies. All experiments were approved by Stanford's Administrative Panel on Laboratory Animal Care (APLAC) and in accordance with both institutional and national guidelines. Five million cells were implanted subcutaneously into the flanks of nude mice (4-6 weeks old)(Charles River Laboratories). Tumors were measured with calipers. Volume was calculated by the following formula: width^2×0.5 length. Once tumors reached an average size of >20 mm^3, mice were randomized into vehicle (DMSO diluted in 16% cremaphor EL/PBS) or treated groups. Mice were treated with STF-35 (11.6 mg/kg for the first 3 days, followed by 7.8 mg/kg for the 7-9 days). Five-micron sections were cut for immunohistochemistry. Sections were counterstained with hematoxylin and eosin. For 2-[^18F]-fluoro-2-deoxy-glucose-positron emission tomography imaging, mice bearing tumors were fasted overnight. The next day, the mice were anesthetized with 2% isoflurane and injected intraperitoneally with 250 μCi of FDG. Mice were imaged for 10 minutes at one hour post-injection, using a Rodent R4 microPET system (Concorde Microsystems). Data were reconstructed into three-dimensional volumes using an ordered subset expectation maximization algorithm and were calibrated into units of percent injected dose per gram.
# [3] = test system: RCC4 cells; assay: Glucose uptake (2-deoxy-D-[3H]glucose), RCC4; format: cell-based
# Description: Glucose Uptake. One hundred thousand cells were plated per well in a six-well plate. The next day, cells were treated with the indicated concentration of drug and incubated for the indicated time. Cells were then washed twice with phosphate-buffered saline, incubated in low-glucose medium for 30 minutes, and 3H-2-deoxyglucose (0.5 μCi) was added in 1 ml of glucose-free media for an additional hour. Cells were washed twice in PBS and lysed (0.2 N NaOH and 0.2% sodium dodecyl sulfate). Glucose uptake was quantified with a scintillation counter.
# [4] = test system: LC3; conditions: leading to cell death; cited from earlier work
# [5] = short-term (XTT) and/or long-term (clonogenic) survival assays
smiles,measurement,setting,value
O=C(CCc1ccc(O)cc1)c1c(O)cc(O)cc1O [phloretin],cytotoxicity to RCC4 and RCC4/VHL cells,[1],toxic to both
O=C(O)C(=O)CBr [bromopyruvate],cytotoxicity to RCC4 and RCC4/VHL cells,[1]; [5],toxic to both
Cc1cccc(Nc2nc(-c3ccncc3)cs2)c1 [STF-62247],glucose (FDG) uptake within the tumors by FDG-PET,[2],did not have a decrease
same,"glucose uptake in VHL-defective cells, analogs and control cytotoxins",[3],did not decrease
same,autophagy in VHL-deficient RCCs,[4],induce autophagy
"O=CC[C@@H](O)[C@H](O)[C@H](O)CO [2-DG, 2-deoxy-D-glucose]",cytotoxicity to RCC4 and RCC4/VHL cells,[1],not cytotoxic
O=C(O)c1nn(Cc2ccc(Cl)cc2Cl)c2ccccc12 [lonidamine],cytotoxicity to RCC4 and RCC4/VHL cells,[1],toxic to both
Clc1ccccc1C(c1ccccc1)(c1ccccc1)n1ccnc1 [clotrimazole],cytotoxicity to RCC4 and RCC4/VHL cells,[1],toxic to both
CC(=O)CC(=O)Nc1ccc(Cl)c(C(F)(F)F)c1 [fasentin],cytotoxicity to RCC4 and RCC4/VHL cells,[1]; [5],relatively non-toxic
